Laboratory results from patent publication US12150920B2, “Topical pharmaceutical composition in the form of aqueous gel comprising at least amitriptyline” (AlgoTherapeutix, priority 2020, dated 2024).

Assay: Ex vivo percutaneous absorption of amitriptyline on human skin samples in a Frantz cell
Assay type: in vitro ADME
Conditions: topical application of compositions A and B
Procedure: Comparative ex vivo study of the percutaneous absorption of amitriptyline in a formulation A in the form of an aqueous gel (invention) and a formulation B in the form of cream (comparative). Each of compositions A and B was applied to distinct samples of human skin. For each composition, the experiment was repeated 3 times with 3 skin samples from 3 different donors, giving 9 samples. The skin samples are placed in a Frantz cell and heated to a surface temperature of 32° C.±1° C. Composition A or B is spread homogenously with a spatula onto each skin sample at a rate of 10 mg per cell, corresponding to 5 mg/cm^2 skin. The skin samples are rinsed 16 hours after application. Each skin sample was placed using tweezers onto absorbent paper (dermis side down). The stratum corneum was removed using adhesive strips. After the removal of the stratum corneum the sample was perforated. The epidermis is then separated from the dermis. Each of them is placed in separate vials. Different samples were then extracted.

With `CN(C)CCC=C1c2ccccc2CCc2ccccc21` [amitriptyline] the “Systemic passage of amitriptyline” value was “less than 0.10 % of the administered dose”.
